In article PMC4459817, “Vasculotide reduces endothelial permeability and tumor cell extravasation in the absence of binding to or agonistic activation of Tie2” (EMBO Molecular Medicine, 2015):
Blank lines part the entries; values can stand above or below the molecule they belong to.

Legend:
[1] = system: pancreatic neuroendocrine tumors; conditions: ref Paez-Ribes et al, 2009; cited from earlier work
From the text: There are at least two plausible explanations for this differential impact of SU on hematogenous metastasis (to lung/liver) vs. lymphogenous metastasis (to LNs). Paez-Ribes et al ...

[2] = system: human microvascular ECs of dermal blood vessel origin (HMVEC-DBl); test: modified Boyden chamber, thrombin-stimulated FITC-dextran permeability, HMVEC-DBl; assay type: cell-based; conditions: Fig1D
Protocol: ECs were first treated with Vasculotide (VT), PBS (vehicle/negative control), Ang1 (positive control), PEG-Cys (polyethylene glycol backbone), T7c (non-PEGylated CHHHRHSF peptides), or VT in the presence of 100-fold molar excess of T7c. The concentrations used, 10–20 ng/mL VT and 200–400 ng/mL Ang1, are estimated molar equivalents (0.71–1.43 nM). Thirty minutes later, ECs were stimulated with thrombin, 0.1% BSA (vehicle/negative control), or EDTA (positive control). Another 30mins later, the amount of FITC-dextran diffusion into the lower chambers (A, D) provides a measure of endothelial permeability. CMTPX-labeled tumor cells (TCs) were then dispensed into inserts, and the amount of TC fluorescence emitting from the underside of insert membranes after 20 h (B–C) or 28 h (E) reflects the efficiency of trans-endothelial TC migration. Representative fluorescent images (10×) of membrane undersides are shown in (C), where DAPI-stained nuclei of ECs/TCs are shown in blue, ‘extravasated’ CMTPX-labeled TCs are shown in red, and the # of CMTPX^+ pixels are shown numerically in red. Means ± SEM are shown (A,B,D,E). Three experiments (twice with HMVEC-LBl and once with HMVEC-DBl) were run with n = 3–5 inserts (independent biological replicates) per group and analyzed by two-sampled unpaired t-tests. […]
Endothelial cells (ECs) were grown on cell culture inserts with uncoated 8-μm-pore PET filter membranes to 100% confluency. […] After 30 min of thrombin stimulation or 4–6 h of TC-CM stimulation, FITC fluorescence (ex/em = 490/520 nm) was measured from a 50 μl sample of the lower chamber media. […] CMPTX fluorescence from migrated TCs was then quantified from 10× microscopy images using a MATLAB (MathWorks, Natick, MA, USA) script; five images (technical replicates) were analyzed per insert. […]

[3] = target: T1, human Tie2-Fc (Fc-conjugated extracellular domain of Tie2) (human, UniProt Q02763 23-748); test: pull-down; purified human or mouse Tie2-Fc coupled to protein A sepharose beads; input ligand (rhAng1 or VT) incubated with the beads; bound and unbound fractions compared; beads only as control; conditions: both partners purified
T1 construct: Tie2 receptor tyrosine kinase, human, extracellular domain; the supplementary Materials and Methods may tell them; also called hTie2-Fc; hTie2; source: purified

[4] = target: T2, mouse Tie2-Fc (Fc-conjugated extracellular domain of Tie2) (mouse, UniProt Q02858 23-746); test: as above; conditions: both partners purified
T2 construct: Tie2 receptor tyrosine kinase, mouse, extracellular domain; the supplementary Materials and Methods may tell them; also called mTie2-Fc; mTie2; source: purified

Molecule: CCN(CC)CCNC(=O)c1c(C)[nH]c(/C=C2\C(=O)Nc3ccc(F)cc32)c1C [sunitinib, reference compound]
metastasis to the liver but not the lymph nodes [1]: increased metastasis to the liver but not the lymph nodes

Molecule: CHHHRHSF [Vasculotide, 4-armed maleimide-functionalized polyethylene glycol (PEG) backbone to link together four cysteine-capped T7 peptides, that is, CHHHRHSF]
anti-permeability effect of VT in presence of 100-fold molar excess of T7c ([2]; HMVEC-DBl): dampened the effects of VT
transendothelial permeability of FITC-dextran ([2]; thrombin-stimulated HMVEC-DBl, VT 10–20 ng/mL, FITC fluorescence ex/em 490/520 nm, n = 3–5 inserts): counteract thrombin-stimulated increases in transendothelial permeability of FITC-dextran (P < 0.05

binding result [3]: binds
binding result [4]: binds
B1: recombinant human Ang1 (rhAng1) (ligand, UniProt Q15389 16-498, looked up)
chain: HIGCSNQRRSPENSGRRYNRIQHGQCAYTFILPEHDGNCRESTTDQYNTNALQRDAPHVEPDFSSQKLQHLEHVMENYTQWLQKLENYIVENMKSEMAQIQQNAVQNHTATMLEIGTSLLSQTAEQTRKLTDVETQVLNQTSRLEIQLLENSLSTYKLEKQLLQQTNEILKIHEKNSLLEHKILEMEGKHKEELDTLKEEKENLQGLVTRQTYIIQELEKQLNRATTNNSVLQKQQLELMDTVHNLVNLCTKEGVLLKGGKREEEKPFRDCADVYQAGFNKSGIYTIYINNMPEPKKVFCNMDVNGGGWTVIQHREDGSLDFQRGWKEYKMGFGNPSGEYWLGNEFIFAITSQRQYMLRIELMDWEGNRAYSQYDRFHIGNEKQNYRLYLKGHTGTAGKQSSLILHGADFSTKDADNDNCMCKCALMLTGGWWFDACGPSNLNGMFYTAGQNHGKLNGIKWHYFKGPSYSLRSTTMMIRPLDF
notes: angiopoietin-1, human, recombinant; also called angiopoietin-1; source: bought: R&D Systems (named for the Boyden chamber experiments)
